Experimental data as given in patent publication US12583870B2, “Azaheteroaryl compound and application thereof” (SHANGHAI BLUERAY BIOPHARMA CO., LTD., priority 2019, dated 2026).

What was measured:
[1] = biological target: T1, EED protein (His6-tagged full-length) binding to H3K27me3 polypeptide (Homo sapiens, UniProt O75530); experiment: AlphaScreen evaluation of blocking the binding of EED to H3K27Me3; details: EED 60 nM, biotinylated H3K27me3 75 nM, 30 minutes incubation
T1 construct: His6-tagged full-length EED protein (441 amino acids)
T1 sequence (O75530 whole entry): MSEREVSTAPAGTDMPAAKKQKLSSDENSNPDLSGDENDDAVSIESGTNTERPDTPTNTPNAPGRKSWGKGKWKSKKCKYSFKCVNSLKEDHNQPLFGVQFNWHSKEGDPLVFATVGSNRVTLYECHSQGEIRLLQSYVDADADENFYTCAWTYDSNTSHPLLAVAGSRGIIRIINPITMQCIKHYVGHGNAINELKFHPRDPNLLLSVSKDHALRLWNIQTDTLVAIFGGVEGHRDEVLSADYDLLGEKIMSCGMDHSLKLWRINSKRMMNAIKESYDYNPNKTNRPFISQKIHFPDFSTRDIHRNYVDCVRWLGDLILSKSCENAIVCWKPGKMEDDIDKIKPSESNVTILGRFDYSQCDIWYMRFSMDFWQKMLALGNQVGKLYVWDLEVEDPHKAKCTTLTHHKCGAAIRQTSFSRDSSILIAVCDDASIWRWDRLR
Method in brief: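 His6-tagged full-length EED (60 nM working stock) and biotin-H3K27me3 peptide aa 19–33 (75 nM working stock) incubated 30 min RT with 9-point 3-fold compound series in 25 mM HEPES pH 8.0, 50 mM NaCl, 0.015% Tween 20, 0.5% BSA. Ni-chelate acceptor and streptavidin donor beads (5 μg/mL each), 1 h dark; IC50 from dose-response fit. Biotin-(His)6 counterscreen checked signal interference.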

[2] = tested on: trimethylation level of histone H3K27 in G401 cells; experiment: ELISA (H3K27 trimethylation) analysis in G401 cells; assay type: cell-based; details: Homo sapiens, G-401, 72 hours, H3K27me3 standardized to H3
Method in brief: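 Cells exposed 72 h to 10-point 3-fold dilutions, top 10 μM, 0.5% final DMSO. Acid-extracted histones assayed by ELISA (ECL) for H3K27me3, normalized to total H3 and to DMSO control; IC50 from dose-response fit.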

[3] = tested on: KARPAS-422 cells; experiment: Cell proliferation analysis, KARPAS-422, 13 days, CellTiter-Glo; assay type: cell-based; details: Homo sapiens, 312 h
Method in brief: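 KARPAS-422 cells were treated with PRC2 inhibitors over 9 three-fold dilutions from 10 μM top (0.5% DMSO, duplicates) in RPMI-1640 with 15% FBS at 37 °C. Every 3–4 days cells were counted and reseeded at 1×10^4/well with fresh compound. Viability was read by CellTiter-Glo luminescence on day 13.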

SMILES | IC50 [1] | IC50 [2] | IC50 [3]
CC1=C(F)c2cc(-c3cnc(NCc4c(F)ccc5c4[C@H]4C[C@H]4O5)n4cnnc34)ccc2S1(=O)=O [3-fluoro-5-(5-((((1aR,6bR)-5-fluoro-1a,6b-dihydro-1H-cyclopropa[b]benzofuran-6-yl)methyl)amino)-[1,2,4]triazolo[4,3-c]pyrimidin-8-yl)-2-methylbenzo[b]thiophene 1,1-dioxide] | 0.0042 µM | 0.0058 µM | 0.0055 µM
Cc1cn2cc(F)cc(-c3cnc(NCc4c(F)ccc5c4CCO5)n4cnnc34)c2n1 [N-((5-fluoro-2,3-dihydrobenzofuran-4-yl)methyl)-8-(6-fluoro-2-methylimidazo[1,2-a]pyridin-8-yl)-[1,2,4]triazolo[4,3-c]pyrimidin-5-amine] | 0.003 µM | 0.0035 µM | 0.0013 µM
CC1=Cc2ccc(-c3cnc(NCc4c(F)ccc5c4CCO5)n4cnnc34)cc2S1(=O)=O [6-(5-(((5-fluoro-2,3-dihydrobenzofuran-4-yl)methyl)amino)-[1,2,4]triazolo[4,3-c]pyrimidin-8-yl)-2-methylbenzo[b]thiophene 1,1-dioxide] | 0.0027 µM | 0.0079 µM | 0.0088 µM
Fc1ccc2c(c1CNc1ncc(-c3cnc4ccnn4c3)c3nncn13)CCO2 [N-((5-fluoro-2,3-dihydrobenzofuran-4-yl)methyl)-8-(pyrazolo[1,5-a]pyrimidin-6-yl)-[1,2,4]triazolo[4,3-c]pyrimidin-5-amine] | 0.0057 µM | 0.018 µM | 0.0183 µM
Cc1cc(-c2cnc(NCc3c(F)ccc4c3CCO4)n3cnnc23)c2nccn2c1 [N-((5-fluoro-2,3-dihydrobenzofuran-4-yl)methyl)-8-(6-methylimidazo[1,2-a]pyridin-8-yl)-[1,2,4]triazolo[4,3-c]pyrimidin-5-amine] | 0.0243 µM | 0.014 µM | 0.0116 µM
